{
  "source": "PubChem BioAssay AID463203",
  "about": "(Broad Institute, 2010)",
  "note": "Activity calls are given as the source filed them.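 How the source made its calls: active means more than half of replicate measurements showing over 20% loss of kinase signal relative to plate controls; inconclusive means some but at most half of replicates over 20% loss; inactive means no replicate over 20% signal loss.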",
  "data": [
    {"target": "Glycogen synthase kinase-3 alpha (Homo sapiens) (UniProt P49840)", "sequence (P49840 whole entry, looked up)": "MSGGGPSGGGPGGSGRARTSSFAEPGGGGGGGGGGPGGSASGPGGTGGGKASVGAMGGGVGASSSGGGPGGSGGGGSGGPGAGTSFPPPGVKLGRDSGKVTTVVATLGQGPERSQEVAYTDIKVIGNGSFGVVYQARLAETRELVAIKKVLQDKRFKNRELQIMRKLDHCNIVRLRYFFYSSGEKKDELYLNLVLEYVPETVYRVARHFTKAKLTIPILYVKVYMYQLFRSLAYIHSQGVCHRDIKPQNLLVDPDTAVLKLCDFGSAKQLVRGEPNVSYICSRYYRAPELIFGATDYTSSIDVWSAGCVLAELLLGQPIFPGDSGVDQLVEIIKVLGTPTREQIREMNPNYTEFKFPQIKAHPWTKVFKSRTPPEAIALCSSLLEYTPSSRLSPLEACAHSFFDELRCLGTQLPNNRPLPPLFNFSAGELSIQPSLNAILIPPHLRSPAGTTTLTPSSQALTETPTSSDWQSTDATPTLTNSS", "assay": "concentration-response blocking of human GSK3A – biochemical, luminescence, cell-free homogeneous, retest, dose response (AID 463203)", "details": "GSK-3 alpha enzyme, ADP-Glo luminescence, 60 min", "values": [
      {"compound": "CC(C)c1c(C(=O)N/N=C/c2ccsc2)nnn1-c1nonc1N", "AC50": "> 30 µM (inactive)"},
      {"compound": "O=C(c1ccc2c(c1)OCO2)N1CCC2(CC1)OCCO2", "AC50": "> 30 µM (inactive)"},
      {"compound": "Cc1nn(-c2ccccc2)c(C)c1/C=C/C(=O)OCC(=O)Nc1ccc(C(N)=O)cc1", "AC50": "> 30 µM (inactive)"},
      {"compound": "O=[N+]([O-])c1ccc(NCCCN2CCOCC2)c(Cl)c1", "AC50": "> 30 µM (inactive)"},
      {"compound": "COCCCNC(=O)C(=O)NC1CCCCC1C", "note": "(stereo unspecified)", "AC50": "> 30 µM (inactive)"},
      {"compound": "O=C(NC1(C(F)(F)F)NC(=O)N(Cc2cccnc2)C1=O)c1ccccc1", "note": "(stereo unspecified)", "AC50": "> 30 µM (inactive)"},
      {"compound": "C=CCN1C(=O)/C(=C\\c2ccco2)C(C(=O)OC)=C1C", "AC50": "> 30 µM (inactive)"},
      {"compound": "CCOc1nc(NCCN2CCOCC2)nc(Nc2ccc([N+](=O)[O-])cc2)n1", "AC50": "> 30 µM (inactive)"},
      {"compound": "c1ccc2c(c1)c1ccccc1n1c(-c3ccc4c(c3)OCO4)nnc21", "AC50": "> 30 µM (inactive)"},
      {"compound": "CC(OC(=O)Cc1c[nH]c2ccccc12)C(=O)N(C)c1ccccc1", "note": "(stereo unspecified)", "AC50": "> 30 µM (inactive)"},
      {"compound": "CCN(CC)CCOc1ccc2c(c1)C(=NNC(=O)c1ccccn1)c1cc(OCCN(CC)CC)ccc1-2", "AC50": "> 30 µM (inactive)"},
      {"compound": "Cc1c(C(=O)OC(C)C)[nH]c2c1C(=O)CC(C)(C)C2", "AC50": "> 30 µM (inactive)"},
      {"compound": "Nc1nonc1-c1nc2ccccc2n1CCC(=O)O", "AC50": "16.4 µM"},
      {"compound": "Nc1nc(SCCOc2ccccc2)n[nH]1", "AC50": "> 30 µM (inactive)"},
      {"compound": "CC(=O)OCC1OC(n2ccc(=O)[nH]c2=O)C(O)C1O", "note": "(stereo unspecified)", "AC50": "> 30 µM (inactive)"},
      {"compound": "NS(=O)(=O)c1cccc(NC(=O)CSc2nnc(-c3ccccc3)o2)c1", "AC50": "> 30 µM (inactive)"},
      {"compound": "Cc1cccc(C(=O)OCC(=O)Nc2c(C)n(C)n(-c3ccccc3)c2=O)c1", "AC50": "> 30 µM (inactive)"},
      {"compound": "CC(=O)O[C@@H]1[C@@H](O)[C@@H](O)[C@H](Oc2c(-c3ccc(O)cc3)oc3c(CC=C(C)C)c(O)cc(O)c3c2=O)O[C@H]1C", "AC50": "14.4 µM"},
      {"compound": "Nc1cc(C(=O)O)c(N)c2c1C(=O)c1ccccc1C2=O", "AC50": "7.46 µM"},
      {"compound": "COC(=O)C1=C(C)Nc2ncnn2C1c1ccccn1", "note": "(stereo unspecified)", "AC50": "> 30 µM (inactive)"},
      {"compound": "COc1cc(/C=c2\\s/c(=C\\C(=O)C(C)(C)C)[nH]c2=O)cc(OC)c1OC", "AC50": "> 30 µM (inactive)"},
      {"compound": "CC(C)(C)C(=O)c1cnc(Nc2ccccc2Cl)s1", "AC50": "> 30 µM (inactive)"},
      {"compound": "O=S(=O)(Nc1ccccc1O)c1cccc2cccnc12", "AC50": "> 30 µM (inactive)"},
      {"compound": "CCOC(=O)c1cc(-c2ccc(F)cc2)n(CC(=O)NC(C)CC)c1C", "note": "(stereo unspecified)", "AC50": "> 30 µM (inactive)"},
      {"compound": "COC(=O)c1sc(NC(=O)COc2ccc(OC)cc2)nc1C", "AC50": "28.6 µM"},
      {"compound": "C=CCNc1nc(N)c([N+](=O)[O-])c(N2CCCCCC2)n1", "AC50": "29.1 µM"},
      {"compound": "Cc1cc(C)nc(NC(=O)/C=C/c2cccs2)c1", "AC50": "> 30 µM (inactive)"},
      {"compound": "O=C(CSc1ccc(F)cc1)Nc1ccc2c(c1)C(=O)NC2=O", "AC50": "12.5 µM"},
      {"compound": "NC(=O)c1ccsc1NC(=O)C1CC1", "AC50": "> 30 µM (inactive)"},
      {"compound": "COC(=O)c1cnn(C(=O)c2cc(OC)ccc2Br)c1N", "AC50": "> 30 µM (inactive)"},
      {"compound": "COCCNc1nnc(SCC(=O)NC2CCCCC2)s1", "AC50": "> 30 µM (inactive)"},
      {"compound": "Cc1ccc(OCC(=O)N2CCN(c3nnc(-c4ccccc4)c4ccccc34)CC2)cc1", "AC50": "> 30 µM (inactive)"},
      {"compound": "CCOCC(=O)Nc1nc2ccc(OCC)cc2s1", "AC50": "> 30 µM (inactive)"},
      {"compound": "Cc1cccc(N(C)C(=O)C2CCCN2S(=O)(=O)c2cccc3nsnc23)c1", "note": "(stereo unspecified)", "AC50": "24.8 µM"},
      {"compound": "N#CC1=C2SCN(c3ccccc3)CN2C(=O)CC1c1ccccc1Cl", "note": "(stereo unspecified)", "AC50": "> 30 µM (inactive)"},
      {"compound": "O=C(O)c1cccc(Nc2nc(-c3cccnc3)nc3ccccc23)c1", "AC50": "12.5 µM"},
      {"compound": "Cc1sc2nc(SCC(=O)Nc3ccc(S(=O)(=O)NCCCC(=O)O)cc3)[nH]c(=O)c2c1C", "AC50": "7.13 µM"},
      {"compound": "O=C(CSc1ccccc1)Nc1ccc2c(c1)C(=O)NC2=O", "AC50": "6.21 µM"},
      {"compound": "CC1(C)CC(=O)C2=C(C1)Nc1nc(SCCN3CCOCC3)[nH]c(=O)c1C2c1cccs1", "note": "(stereo unspecified)", "AC50": "> 30 µM (inactive)"},
      {"compound": "O=C1CC(/C=C/c2ccncc2)=Nc2ccccc2N1", "AC50": "13.1 µM"},
      {"compound": "COc1ccc2nc(NC(=O)CN3C(=O)NC4(CCCC4)C3=O)sc2c1", "AC50": "26.3 µM"}
    ]}
  ]
}
